{"source": "patent US20240269079A1", "about": "“MELATONIN FORMULATION IN SOLID DOSAGE FORM” (AGB-Pharma AB, priority 2021, published 2024)", "origin": "cited, not measured here", "key": {"[1]": {"conditions": "after administration"}}}
{"smiles": "COc1ccc2[nH]cc(CCNC(C)=O)c2c1", "note": "[melatonin, N-acetyl-5-methoxytryptamine]", "values": [{"measurement": "Time for blood levels to return to normal daytime levels", "setting": "[1]", "result": "6 to 8", "unit": "h"}, {"measurement": "Solubility in aqueous solutions", "result": "low solubility"}]}
